Measured values as given in ChEMBL document CHEMBL4311942, “Design of Trp-Rich Dodecapeptides with Broad-Spectrum Antimicrobial Potency and Membrane-Disruptive Mechanism” (J Med Chem, 2019).
In brackets after ≈: the same amount, converted by molar mass.

Experiments:
Escherichia coli [1] = experiment: Antibacterial activity against Escherichia coli UB1005 incubated for 18 to 24 hrs by broth microdilution method; format: functional
Acinetobacter baumannii [2] = experiment: Antibacterial activity against Acinetobacter baumannii AB1902 clinical isolate incubated for 18 to 24 hrs by broth microdilution method; format: functional
Escherichia coli [3] = experiment: Antibacterial activity against Escherichia coli 20411 clinical isolate incubated for 18 to 24 hrs by broth microdilution method; format: functional
[4] = system: Staphylococcus epidermidis; experiment: Antibacterial activity against Staphylococcus epidermidis ATCC 12228 incubated for 18 to 24 hrs by broth microdilution method; format: functional
Pseudomonas aeruginosa = experiment: Antibacterial activity against Pseudomonas aeruginosa 25349 clinical isolate incubated for 18 to 24 hrs by broth microdilution method; format: functional
Salmonella typhimurium = experiment: Antibacterial activity against Salmonella enterica serovar typhimurium C77-31 incubated for 18 to 24 hrs by broth microdilution method; format: functional, Salmonella enterica subsp. enterica serovar Typhimurium
Staphylococcus aureus [5] = experiment: Antibacterial activity against Staphylococcus aureus ATCC 25923 incubated for 18 to 24 hrs by broth microdilution method; format: functional
Acinetobacter baumannii [6] = experiment: Antibacterial activity against Acinetobacter baumannii AB1901 clinical isolate incubated for 18 to 24 hrs by broth microdilution method; format: functional
Escherichia coli [7] = experiment: Antibacterial activity against Escherichia coli ATCC 25922 incubated for 18 to 24 hrs by broth microdilution method; format: functional
Staphylococcus aureus [8] = experiment: Antibacterial activity against Staphylococcus aureus ATCC 29213 incubated for 18 to 24 hrs by broth microdilution method; format: functional
Escherichia coli [9] = experiment: Antibacterial activity against ciprofloxacin-resistant Escherichia coli ATCC 25922 incubated for 18 to 24 hrs; format: functional
Staphylococcus aureus [10] = experiment: Antibacterial activity against Staphylococcus aureus 11011 incubated for 18 to 24 hrs by broth microdilution method; format: functional
[11] = Resistance index, ratio of MIC for antibacterial activity against ciprofloxacin-resistant Escherichia coli to MIC for Escherichia coli ATCC 25922 incubated for 18 to 24 hrs by broth microdilution method; format: functional
Lipopolysaccharide (LPS) = experiment: Displacement of BODIPY-TR-cadaverine from Escherichia coli O111:B4 LPS assessed as increase in fluorescence intensity at 64 uM by spectrofluorophotometric method relative to control

Row | SMILES | MIC (Escherichia coli [1]) | MIC (Acinetobacter baumannii [2]) | MIC (Escherichia coli [3]) | MIC [4] | MIC (Pseudomonas aeruginosa) | MIC (Salmonella typhimurium) | MIC (Staphylococcus aureus [5]) | MIC (Acinetobacter baumannii [6]) | MIC (Escherichia coli [7]) | MIC (Staphylococcus aureus [8]) | MIC (Escherichia coli [9]) | MIC (Staphylococcus aureus [10]) | Ratio [11] | Activity (Lipopolysaccharide (LPS))
1 | CN(C)c1ccc(O)c2c1C[C@H]1C[C@H]3[C@H](N(C)C)C(O)=C(C(N)=O)C(=O)[C@@]3(O)C(O)=C1C2=O [MINOCYCLINE] | 4 µM (≈ 1.83 µg/mL) | 0.25 µM (≈ 0.114 µg/mL) | 2 µM (≈ 0.915 µg/mL) | 0.25 µM (≈ 0.114 µg/mL) | 8 µM (≈ 3.66 µg/mL) | 8 µM (≈ 3.66 µg/mL) | 0.25 µM (≈ 0.114 µg/mL) | 0.25 µM (≈ 0.114 µg/mL) | 1 µM (≈ 0.457 µg/mL) | 0.25 µM (≈ 0.114 µg/mL) | 64 µM (≈ 29.3 µg/mL) | 0.25 µM (≈ 0.114 µg/mL) | 64 | –
2 | O=C(O)c1cn(C2CC2)c2cc(N3CCNCC3)c(F)cc2c1=O [CIPROFLOXACIN] | 2 µM (≈ 0.663 µg/mL) | – | – | 0.5 µM (≈ 0.166 µg/mL) | – | 4 µM (≈ 1.33 µg/mL) | 0.5 µM (≈ 0.166 µg/mL) | – | 2 µM (≈ 0.663 µg/mL) | 0.5 µM (≈ 0.166 µg/mL) | 256 µM (≈ 84.8 µg/mL) | 0.5 µM (≈ 0.166 µg/mL) | – | 1.6%
